Test results from patent publication US20220339257A1, “METHODS TO INCREASE THE SENSITIVITY AND REVERSING THE RESISTANCE TO DRUGS” (Biomarker Strategies, LLC, priority 2019, published 2022).

How the values were obtained:
Assay type in all cases: cell-based
A498 = assay: WST-8 cell viability assay; settings: in combination with cetuximab, 72 hours
Protocol: (§1) Day 1: cells were harvested cells from flask (4 mL accutase for T175 for 3-5 minutes), and spin down for 5 mins at 1200 rpm. The supernatant was poured off, and the pellet gently resuspended in 1 mL media. Countess counts were performed, and the cells were diluted in media (10% FBS). With multi-channel pipette, 2500 cells were seeded in 100 uL of media (10% FBS) in each well of 96 well plate. The cells were let to adhere and grow for 24 hours. Day 2: serial drug dilutions of MTAs+/−EMs at 5× of concentrations (as done above) were performed in media (10% FBS). 20 uL of media form each well of the 96 well plate (80 uL media left in wells) was removed, and 20 uL of appropriate 5× drug dilutions was added to each respective well (for a 1× conc). The cells were incubated with drug for 72 hours in 37C incubator. Day 5: 10 uL of WST-8 reagent was added to each well of the 96 well plate and mixed gently. the plates were incubated up to 4 hours at 37C in dark, and absorbance readings were taken at […] and 600 nm wavelengths at 1, 2, 3 and 4h, until control absorbance levels were 1.5-2.0).
(§2) WST-8 Assay: MTA and EM effects on cell viability were measured by Cell Counting Kit8 (WST-8) colorimetric assay using water-soluble tetrazolium salt WST-8 reagent (Vita Scientific Cat. #DBOC00128). For the assay, cells were seeded in 96-well plates at 2,500 cells per well, in 100 μL of 10% FBS-containing media. After 24 hours, a 1 nM to 10 μM range of MTA and/or 1 ng/mL to 1 mg/mL range of EM doses was added and incubated for 72 hours. After treatment, a 10% volume of WST-8 reagent was added to each well and cells were incubated at 37° C. for up to 4 hours. Solution absorbance was measured at wavelengths of 450 nm and 600 nm at 1-, 2-, 3-, and 4-hour's incubation. Percentage viability of drug-treated cells was calculated relative to untreated control cells. Results were confirmed by three independent experiments.
(§3) For studying the effects of various molecularly targeted agents (MTAs) and enhancer molecules (EMs) alone as well as in combination: HCC827, PC-9, A427, Calu-6, H2228, H358, H1299, H460, H292, H1838, H2170, and H226 (non-small cell lung cancer; NSCLC); and SK-MES-1 […], CAL27, OE21, KYSE-70, A-253, BICR-16, PE/CA-PJ15 and Ca9-22 (head and neck squamous cell carcinoma; HNSCC); SK-MEL-2, SK-MEL-28, RPMI-7951 and A7 (melanoma); HTB-38 and HCT116 (colorectal cancer; CRC); BxPC-3 and HPAF-II (pancreatic cancer); HEPG2 (hepatocellular carcinoma; HCC); A498 (renal cell carcinoma; RCC) cells were used. Other cell lines, including those from other cancer types, or cells collected from more complex sample types such as xenografts and clinical samples can be used. Ultimately, these combinations can be utilized in various clinical and pre-clinical samples and studies. Using the WST-8 cell viability assay, a MTA+EM-induced anti-cancer/anti-growth activity in multiple cell lines was discovered (FIGS. 8-15). Other viability assays, for example, MTT, HoPI staining, dye exclusion (e.g. trypan blue), can be used readily. […] The cut-off value for classifying a “strong anti-cancer/anti-growth enhancement” was a response resulting in >70% reduction in cell survival compared to untreated control cells (100%), while showing greater reduction compared to both MTA and EM alone.

BICR-16 = assay: WST-8 cell viability assay; settings: in combination with IFN-γ, 72 hours
Protocol: as §1, §2, §3

Calu-6 = assay: WST-8 cell viability assay; settings: in combination with IFN-γ, 72 hours
Protocol: as §1, §2, §3

HTB-38 = assay: WST-8 cell viability assay; settings: in combination with IFN-γ, 72 hours
Protocol: as §1, §2, §3

OE21 = assay: WST-8 cell viability assay; settings: in combination with GSK-458, 72 hours
Protocol: as §1, §2, §3

PC-9 = assay: WST-8 cell viability assay; settings: in combination with trametinib; PC-9 (EGFR E746_A750del); 72 hours
Protocol: as §1, §2, §3

RPMI-7951 = assay: WST-8 cell viability assay
Protocol: as §1, §2, §3

erlotinib-resistant PC-9 = assay: WST-8 cell viability assay
Protocol: as §1, §2, §3

EGFR WT sample (H1581) = assay: Immunocytochemistry biomarker staining; settings: erlotinib+EM2 combination; WT EGFR smoker samples; 72 hours
Protocol: (§4) Cells at the seeding density of 10,000 cells per well were plated in 8 chamber slides in complete RPMI culture medium for overnight. After 24h cells were treated with RPMI media without the serum along with selected dose of erlotinib+EM2 and kept for additional 72 hours in incubation condition set at 37° C. in a humidified atmosphere of 95% air and 5% CO2. The chamber slides were rinsed with PBS before performing ICC staining. An Ambay kit (Catalog #10011A) purchased from Ambay Immune Sensors and Controls, LLC (AISC) (MD, USA) was used to perform ICC staining as per the kit instructions and using poly-HRP from Biogenix (CA, USA) was used to enable signal amplification and detection of specific bound antibody targets. A respective isotype antibody control was be kept for each biomarker. Counterstaining was performed before mounting and analysis.

[1] = system: clinical sample (WT EGFR tumor, patient who smoked); assay: Immunocytochemistry biomarker staining of a clinical sample; settings: erlotinib+EM2 combination
Protocol: as §4

Ca9-22 = assay: WST-8 cell viability assay
Protocol: as §1, §2, §3

[2] = in combination with GSK-458, 72 hours
[3] = in combination with trametinib, 72 hours

Molecule	anti-cancer/growth enhancement (WST-8 cell viability) (A498)	anti-cancer/growth enhancement (WST-8 cell viability) (BICR-16)	anti-cancer/growth enhancement (WST-8 cell viability) (Calu-6)	anti-cancer/growth enhancement (WST-8 cell viability) (HTB-38)	anti-cancer/growth enhancement (WST-8 cell viability) (OE21)	anti-cancer/growth enhancement (WST-8 cell viability) (PC-9)	anti-cancer/growth enhancement (WST-8 cell viability) (RPMI-7951; [2])	anti-cancer/growth enhancement (WST-8 cell viability) (RPMI-7951; in combination with dabrafenib, 72 hours)	anti-cancer/growth enhancement (WST-8 cell viability) (erlotinib-resistant PC-9; [2])	anti-cancer/growth enhancement (WST-8 cell viability) (erlotinib-resistant PC-9; [3])	cell apoptosis (changes in nuclear staining of Bcl2, ICC) (EGFR WT sample (H1581))	cell apoptosis (nuclear staining of Bcl2, nuclear vacuolization) [1]	anti-cancer/growth enhancement (WST-8 cell viability) (Ca9-22; [2])	anti-cancer/growth enhancement (WST-8 cell viability) (Ca9-22; in combination with GSK-795, 72 hours)	anti-cancer/growth enhancement (WST-8 cell viability) (Ca9-22; in combination with everolimus, 72 hours)	anti-cancer/growth enhancement (WST-8 cell viability) (Ca9-22; in combination with metformin, 72 hours)	anti-cancer/growth enhancement (WST-8 cell viability) (Ca9-22; in combination with osimertinib, 72 hours)	anti-cancer/growth enhancement (WST-8 cell viability) (Ca9-22; [3])
tumor necrosis factor-alpha [EM2]	moderate-to-strong anti-cancer/growth enhancement	moderate-to-strong anti-cancer/growth enhancement	moderate-to-strong anti-cancer/growth enhancement	moderate-to-strong anti-cancer/growth enhancement	moderate-to-strong anti-cancer/growth enhancement	moderate-to-strong anti-cancer/growth enhancement	moderate-to-strong anti-cancer/growth enhancement	moderate-to-strong anti-cancer/growth enhancement	moderate-to-strong anti-cancer/growth enhancement	moderate-to-strong anti-cancer/growth enhancement	promoted cell apoptosis	promoted cell apoptosis						
interferon-alpha-1 (protein, UniProt P01562 24-189, looked up, enhancer molecule, cytokine purchased from Sigma) Interferon alpha-1/13: CDLPETHSLDNRRTLMLLAQMSRISPSSCLMDRHDFGFPQEEFDGNQFQKAPAISVLHELIQQIFNLFTTKDSSAAWDEDLLDKFCTELYQQLNDLEACVMQEERVGETPLMNADSILAVKKYFRRITLYLTEKKYSPCAWEVVRAEIMRSLSLSTNLQERLRRKE													anti-cancer/growth enhancement	anti-cancer/growth enhancement	anti-cancer/growth enhancement	anti-cancer/growth enhancement	anti-cancer/growth enhancement	anti-cancer/growth enhancement
